# According to PMC1930153, “Engineering the Melanocortin-4 Receptor to Control Constitutive and Ligand-Mediated Gs Signaling In Vivo” (PLoS ONE, 2007):
# Assays:
# Type in all cases: cell-based
# [1] = biological target: T1, wild-type MC4R (Homo sapiens, UniProt P32245); assay: Receptor internalization (cell-surface FLAG ELISA), HEK293 cells stably expressing wild-type MC4R; conditions: WT MC4R, 2-h exposure
# T1 construct: prolactin signal peptide (N); expressed in transfected cells; host or cells: HEK293
# Protocol: (§1) HEK293 cells were maintained in Dulbecco's modified Eagle's medium supplemented with 10% fetal bovine serum containing L-glutamine. Wild-type and mutant MC4R were transfected into HEK 293 cells with Lipofectamine (Invitrogen). For the internalization assays, stable cell lines expressing wild-type or RASSL-MC4R were generated by G418-mediated selection (10 µg/ml) of clones expressing the neomycin-resistance gene cotransfected with MC4R. Stable cell lines were maintained by selection with 5 µg/ml G418.
# (§2) Cell-surface expression of receptors was measured with an enzyme-linked immunosorbent assay (ELISA) that detects the extracellular FLAG tag. Transiently transfected cells were plated at 1×10^5/well into 96-well plates coated with poly-D-lysine (Sigma). […] Forty-eight h after transfection, cells were fixed in 4% paraformaldehyde (Sigma) for 10 min at 4°C. After two washes in phosphate-buffered saline, the cells were incubated in 1 µg/ml M1 anti-FLAG antibody (Sigma) for 2 h at room temperature, washed twice in phosphate-buffered saline, and incubated for 1 h at room temperature with horseradish peroxidase–conjugated goat-anti-mouse (1∶1000, BioRad, Chicago, IL). […] After 15–60 min, the optical density was read at 405 nm in a spectrophotometer. […]
# [2] = biological target: T2, MC4R D126A (Homo sapiens, UniProt P32245, D126A); assay: cAMP assay, D126A MC4R mutant in HEK293 cells
# T2 construct: prolactin signal peptide (N); green fluorescent protein (N); expressed in transfected cells; host or cells: HEK293
# Protocol: as §1
# (§3) cAMP production was measured with an ultra sensitive enzymatic cAMP assay (CatchPoint, Molecular Devices, Sunnyvale, CA). Transiently transfected cells were plated at 1×10^5/well into 96-well plates coated with poly-D-lysine (Sigma). Forty-eight h after transfection, cells were rinsed in Krebs-Ringer bicarbonate buffer containing glucose (Sigma) and incubated in pre-stimulation buffer containing 0.75 mM 3-isobutyl-1-methylxanthine in the same buffer for 10 min at room temperature. […] The cells were lysed, and cAMP accumulation was measured according to the CatchPoint protocol. cAMP generated under the different experimental conditions was interpolated from a cAMP standard curve for each experiment. […] Emax and EC50 values were calculated with SoftMax Pro. cAMP measurements were performed on transiently transfected cells.
# [3] = biological target: T3, MC4R E100A (Homo sapiens, UniProt P32245, E100A); assay: cAMP assay, E100A MC4R mutant in HEK293 cells
# T3 construct: prolactin signal peptide (N); green fluorescent protein (N); expressed in transfected cells; host or cells: HEK293
# Protocol: as §1, §3
# [4] = biological target: T4, MC4R G98R (Homo sapiens, UniProt P32245, G98R); assay: cAMP assay, G98R MC4R mutant in HEK293 cells
# T4 construct: prolactin signal peptide (N); green fluorescent protein (N); expressed in transfected cells; host or cells: HEK293
# Protocol: as §1, §3
# [5] = biological target: T5, MC4R N97D (Homo sapiens, UniProt P32245, N97D); assay: cAMP assay, N97D MC4R mutant in HEK293 cells
# T5 construct: prolactin signal peptide (N); green fluorescent protein (N); expressed in transfected cells; host or cells: HEK293
# Protocol: as §1, §3
# [6] = biological target: T1, wild-type MC4R; assay: cAMP assay, wild-type MC4R in transiently transfected HEK293 cells
# Protocol: as §1, with “Wild-type and mutant MC4R were transfected into HEK 293 cells with Lipofectamine (Invitrogen).” left out
# (§4) cAMP production was measured with an ultra sensitive enzymatic cAMP assay (CatchPoint, Molecular Devices, Sunnyvale, CA). Transiently transfected cells were plated at 1×10^5/well into 96-well plates coated with poly-D-lysine (Sigma). Forty-eight h after transfection, cells were rinsed in Krebs-Ringer bicarbonate buffer containing glucose (Sigma) and incubated in pre-stimulation buffer containing 0.75 mM 3-isobutyl-1-methylxanthine in the same buffer for 10 min at room temperature. […] The cells were lysed, and cAMP accumulation was measured according to the CatchPoint protocol. cAMP generated under the different experimental conditions was interpolated from a cAMP standard curve for each experiment. Four replicates were used for each condition, and all experiments were repeated at least three times. Emax and EC50 values were calculated with SoftMax Pro. cAMP measurements were performed on transiently transfected cells.
# [7] = biological target: T6, L106P-MC4R (Rm1) (Homo sapiens, UniProt P32245, L106P); assay: cAMP assay, L106P MC4R (Rm1) in HEK293 cells
# T6 construct: prolactin signal peptide (N); green fluorescent protein (N); expressed in transfected cells; host or cells: HEK293
# Protocol: as §1, with “Wild-type and mutant MC4R were transfected into HEK 293 cells with Lipofectamine (Invitrogen).” left out
# as §4
# [8] = biological target: T7, Rm2 (D122A) (Homo sapiens, UniProt P32245, D122A); assay: Receptor internalization (cell-surface FLAG ELISA), HEK293 cells stably expressing Rm2
# T7 construct: prolactin signal peptide (N); green fluorescent protein (N); expressed in transfected cells; host or cells: HEK293
# Protocol: as §1, §2
# [9] = biological target: T8, Rm1 (L106P) (Homo sapiens, UniProt P32245, L106P); assay: Receptor internalization (cell-surface FLAG ELISA), HEK293 cells stably expressing Rm1
# T8 construct: prolactin signal peptide (N); green fluorescent protein (N); expressed in transfected cells; host or cells: HEK293
# Protocol: as §1, §2
# [10] = biological target: T9, D122A-MC4R (Rm2) (Homo sapiens, UniProt P32245, D122A); assay: cAMP assay, D122A MC4R (Rm2) in HEK293 cells
# T9 construct: prolactin signal peptide (N); green fluorescent protein (N); expressed in transfected cells; host or cells: HEK293
# Protocol: as §1, with “Wild-type and mutant MC4R were transfected into HEK 293 cells with Lipofectamine (Invitrogen).” left out
# as §4
# [11] = biological target: T10, MC4R I102S (Homo sapiens, UniProt P32245, I102S); assay: cAMP assay, I102S MC4R mutant in HEK293 cells
# T10 construct: prolactin signal peptide (N); green fluorescent protein (N); expressed in transfected cells; host or cells: HEK293
# Protocol: as §1, §3
# [12] = biological target: T11, MC4R S127L (Homo sapiens, UniProt P32245, S127L); assay: cAMP assay, S127L MC4R mutant in HEK293 cells
# T11 construct: prolactin signal peptide (N); green fluorescent protein (N); expressed in transfected cells; host or cells: HEK293
# Protocol: as §1, §3
# [13] = biological target: T1, wild-type MC4R; assay: Cell-surface expression ELISA, transiently transfected HEK293 cells, wild-type MC4R; conditions: WT MC4R, transient transfection; α-MSH 1 µM
# Protocol: as §1, §2
molecule,measurement,setting,value
O=C(N[C@H](Cc1ccc(Cl)cc1)C(=O)N1CCC(Cn2cncn2)(C2CCCCC2)CC1)[C@H]1Cc2ccccc2CN1 (relative stereo) [THIQ],Internalization in words (time course),[1]; 1 µM ligand,did not result in internalization
same,Receptor sequestration in words,[1]; increasing concentrations,did not cause sequestration
same,Emax (% of WT),[2],50.7±3.6 % of WT
same,Emax (% of WT),[3],44.54±4.9 % of WT
same,Emax (% of WT),[4],2.6±0.6 % of WT
same,Emax (% of WT),[5],43.1±3.1 % of WT
same,Emax (% of WT),"[6]; cAMP, 2 h stimulation",100 % of WT
same,Emax (% of WT),"[7]; cAMP, L106P (Rm1)",73.4±14.8 % of WT
same,Decrease in cell-surface expression,"[8]; Rm2, 1 µM ligand",about 20%
same,Receptor sequestration/internalization in words,"[8]; Rm2, 2-h exposure, increasing concentrations",did not cause sequestration
same,Internalization in words (time course),"[9]; Rm1, 1 µM ligand, 2-h exposure",did not internalize
same,Receptor sequestration/internalization in words,"[9]; Rm1, 2-h exposure, increasing concentrations",did not cause sequestration
same,Emax (% of WT),"[10]; cAMP, D122A (Rm2)",90.3±6.2 % of WT
same,Emax (% of WT),[11],49.2±2.2 % of WT
same,Emax (% of WT),[12],21.7±3.5 % of WT
CSCC[C@H](NC(=O)[C@H](CCCNC(=N)N)NC(=O)[C@H](Cc1ccc(O)cc1)NC(=O)[C@@H]1CCCN1C(=O)CNC(=O)[C@H](CCC(=O)O)NC(=O)[C@H](CC(=O)O)NC(=O)[C@H](CCCCN)NC(=O)[C@H](CCCCN)NC(=O)[C@H](CCC(=O)O)NC(=O)[C@H](C)N)C(=O)N[C@@H](CCC(=O)O)C(=O)N[C@@H](Cc1c[nH]cn1)C(=O)N[C@@H](Cc1ccccc1)C(=O)N[C@@H](CCCNC(=N)N)C(=O)N[C@@H](Cc1c[nH]c2ccccc12)C(=O)NCC(=O)N[C@@H](CO)C(=O)N1CCC[C@H]1C(=O)N1CCC[C@H]1C(=O)N[C@@H](CCCCN)C(=O)N[C@@H](CC(=O)O)C(=O)O [β-MSH],Activation (cAMP release) in words,"[6]; WT MC4R, increasing concentrations",full activation
same,Activation (cAMP release) in words,"[7]; Rm1, increasing concentrations",no activation
same,Activation (cAMP release) in words,"[10]; Rm2, increasing concentrations",no activation
"agouti-related peptide (SSRRCVRLHESCLGQQVPCCDPCATCYCRFFNAFCYCRKLGTAMNPCSRT; UniProt O00253 83-132, looked up) [AGRP]",Effect on cell-surface expression in words,[13],stabilized receptor expression on the cell surface
same,Antagonism when co-administered with THIQ,"[7]; Rm1, cAMP",full antagonist
